The supplement of paper PMC10307832

Assays:
Test in all cases: relative viability (nuclei count vs DMSO), 5 days (fraction); higher = more cells survive
LCLC-97TM1 = tested on: LCLC-97TM1
Summary of the method: (§1)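 Lung cancer cell lines were seeded in 1536-well plates and dosed by pin tool the next day, with either a single drug or a fixed anchor-drug dose combined with five library-drug doses (not always all listed) spaced in √10 steps. Five days later, one step fixed the cells and stained their nuclei (final 0.05% Triton X-100, 1% formaldehyde, 1 ug/ml Hoechst), and nuclei were counted on 4× images. Relative viability is the nuclei count in treated wells divided by the count in vehicle wells, and each value is the median of duplicate plates.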

NCI-H1793 = tested on: NCI-H1793
Summary of the method: as §1

NCI-H3122 = tested on: NCI-H3122
Summary of the method: as §1

BEN = tested on: BEN
Summary of the method: as §1

HCC-827 = tested on: HCC-827
Summary of the method: as §1

LXF-289 = tested on: LXF-289
Summary of the method: as §1

LCLC-103H = tested on: LCLC-103H
Summary of the method: as §1

RERF-LC-KJ = tested on: RERF-LC-KJ
Summary of the method: as §1

NCI-H647 = tested on: NCI-H647
Summary of the method: as §1

CAL-12T = tested on: CAL-12T
Summary of the method: as §1

NCI-H1792 = tested on: NCI-H1792
Summary of the method: as §1

NCI-H322M = tested on: NCI-H322M
Summary of the method: as §1

201T = tested on: 201T
Summary of the method: as §1

NCI-H2087 = tested on: NCI-H2087
Summary of the method: as §1

NCI-H727 = tested on: NCI-H727
Summary of the method: as §1

NCI-H2405 = tested on: NCI-H2405
Summary of the method: as §1

NCI-H1395 = tested on: NCI-H1395
Summary of the method: as §1

NCI-H1437 = tested on: NCI-H1437
Summary of the method: as §1

NCI-H1944 = tested on: NCI-H1944
Summary of the method: as §1

Cc1sc2c(c1C)C(c1ccc(Cl)cc1)=N[C@@H](CC(=O)OC(C)(C)C)c1nnc(C)n1-2 [JQ1] + NC(=O)Nc1cc(-c2cccc(F)c2)sc1C(=O)N[C@H]1CCCNC1 [AZD7762] (partner 0.2 µM)
relative viability (LCLC-97TM1; first compound 0.04 µM): 0.269
relative viability (LCLC-97TM1; first compound 0.1265 µM): 0.255
relative viability (LCLC-97TM1; first compound 0.4 µM): 0.268
relative viability (LCLC-97TM1; first compound 1.265 µM): 0.097
relative viability (LCLC-97TM1; first compound 4 µM): 0.0653
relative viability (NCI-H1793; first compound 0.04 µM): 0.482
relative viability (NCI-H1793; first compound 0.1265 µM): 0.395
relative viability (NCI-H1793; first compound 0.4 µM): 0.824
relative viability (NCI-H1793; first compound 1.265 µM): 0.556
relative viability (NCI-H1793; first compound 4 µM): 0.459
relative viability (NCI-H3122; first compound 0.04 µM): 1.04
relative viability (NCI-H3122; first compound 0.1265 µM): 0.965
relative viability (NCI-H3122; first compound 0.4 µM): 0.971
relative viability (NCI-H3122; first compound 1.265 µM): 0.883
relative viability (NCI-H3122; first compound 4 µM): 0.693
relative viability (BEN; first compound 0.04 µM): 0.718
relative viability (BEN; first compound 0.1265 µM): 0.585
relative viability (BEN; first compound 0.4 µM): 0.644
relative viability (BEN; first compound 1.265 µM): 0.468
relative viability (BEN; first compound 4 µM): 0.372
relative viability (HCC-827; first compound 0.04 µM): 0.292
relative viability (HCC-827; first compound 0.1265 µM): 0.266
relative viability (HCC-827; first compound 1.265 µM): 0.233
relative viability (HCC-827; first compound 4 µM): 0.277
relative viability (LXF-289; first compound 0.04 µM): 1.12
relative viability (LXF-289; first compound 0.1265 µM): 1.07
relative viability (LXF-289; first compound 0.4 µM): 0.851
relative viability (LXF-289; first compound 1.265 µM): 1.02
relative viability (LXF-289; first compound 4 µM): 0.512
relative viability (LCLC-103H; first compound 0.04 µM): 0.778
relative viability (LCLC-103H; first compound 0.1265 µM): 0.713
relative viability (LCLC-103H; first compound 0.4 µM): 0.701
relative viability (LCLC-103H; first compound 1.265 µM): 0.492
relative viability (LCLC-103H; first compound 4 µM): 0.438
relative viability (RERF-LC-KJ; first compound 0.04 µM): 1.02
relative viability (RERF-LC-KJ; first compound 0.1265 µM): 0.803
relative viability (RERF-LC-KJ; first compound 0.4 µM): 0.976
relative viability (RERF-LC-KJ; first compound 1.265 µM): 0.816
relative viability (RERF-LC-KJ; first compound 4 µM): 0.358
relative viability (NCI-H647; first compound 0.04 µM): 0.472
relative viability (NCI-H647; first compound 0.1265 µM): 0.293
relative viability (NCI-H647; first compound 0.4 µM): 0.25
relative viability (NCI-H647; first compound 1.265 µM): 0.103
relative viability (NCI-H647; first compound 4 µM): 0.0446
relative viability (CAL-12T; first compound 0.04 µM): 0.588
relative viability (CAL-12T; first compound 0.1265 µM): 0.52
relative viability (CAL-12T; first compound 0.4 µM): 0.466
relative viability (CAL-12T; first compound 1.265 µM): 0.365
relative viability (CAL-12T; first compound 4 µM): 0.317
relative viability (NCI-H1792; first compound 0.04 µM): 0.62
relative viability (NCI-H1792; first compound 0.1265 µM): 0.46
relative viability (NCI-H1792; first compound 0.4 µM): 0.38
relative viability (NCI-H1792; first compound 1.265 µM): 0.14
relative viability (NCI-H1792; first compound 4 µM): 0.0872
relative viability (NCI-H322M; first compound 0.04 µM): 0.532
relative viability (NCI-H322M; first compound 0.1265 µM): 0.534
relative viability (NCI-H322M; first compound 0.4 µM): 0.44
relative viability (NCI-H322M; first compound 1.265 µM): 0.397
relative viability (NCI-H322M; first compound 4 µM): 0.437
relative viability (201T; first compound 0.04 µM): 0.716
relative viability (201T; first compound 0.4 µM): 0.7
relative viability (201T; first compound 1.265 µM): 0.498
relative viability (201T; first compound 4 µM): 0.393
relative viability (NCI-H2087; first compound 0.04 µM): 1.34
relative viability (NCI-H2087; first compound 0.1265 µM): 1.29
relative viability (NCI-H2087; first compound 0.4 µM): 1.29
relative viability (NCI-H2087; first compound 1.265 µM): 0.604
relative viability (NCI-H2087; first compound 4 µM): 0.383
relative viability (NCI-H727; first compound 0.04 µM): 0.735
relative viability (NCI-H727; first compound 0.1265 µM): 0.61
relative viability (NCI-H727; first compound 0.4 µM): 0.539
relative viability (NCI-H727; first compound 1.265 µM): 0.436
relative viability (NCI-H727; first compound 4 µM): 0.405
relative viability (NCI-H2405; first compound 0.04 µM): 0.712
relative viability (NCI-H2405; first compound 0.4 µM): 0.646
relative viability (NCI-H2405; first compound 1.265 µM): 0.586
relative viability (NCI-H2405; first compound 4 µM): 0.365
relative viability (NCI-H1395; first compound 0.04 µM): 0.384
relative viability (NCI-H1395; first compound 0.1265 µM): 0.379
relative viability (NCI-H1395; first compound 0.4 µM): 0.372
relative viability (NCI-H1395; first compound 1.265 µM): 0.348
relative viability (NCI-H1395; first compound 4 µM): 0.361
relative viability (NCI-H1437; first compound 0.04 µM): 1.11
relative viability (NCI-H1437; first compound 0.1265 µM): 0.979
relative viability (NCI-H1437; first compound 0.4 µM): 0.847
relative viability (NCI-H1437; first compound 1.265 µM): 0.657
relative viability (NCI-H1437; first compound 4 µM): 0.445
relative viability (NCI-H1944; first compound 0.04 µM): 0.533
relative viability (NCI-H1944; first compound 0.1265 µM): 0.412
relative viability (NCI-H1944; first compound 0.4 µM): 0.434
relative viability (NCI-H1944; first compound 1.265 µM): 0.365
relative viability (NCI-H1944; first compound 4 µM): 0.313
